How the values were obtained:
bedstraw = assay: Test B preemergence/postemergence greenhouse plant response rating 0 to 10; type: in vivo, Galium aparine; settings: for Plant response rating, Bedstraw: 0 to 10 scale
Method in brief: (§1)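 Postemergence treatment of plants two to eighteen cm tall ran alongside preemergence treatment of planted seed, each using compound in a non-phytotoxic solvent.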

cheatgrass = assay: as above; type: in vivo, Bromus secalinus; settings: for Plant response rating, Cheatgrass: 0 to 10 scale
Method in brief: as §1

cocklebur = assay: as above; type: in vivo, Xanthium pensylvanicum; settings: for Plant response rating, Cocklebur: 0 to 10 scale
Method in brief: as §1

cotton [1] = assay: as above; type: in vivo, Gossypium hirsutum; settings: for Plant response rating, Cotton: 0 to 10 scale
Method in brief: as §1

crabgrass = assay: as above; type: in vivo, Digitaria spp.; settings: for Plant response rating, Crabgrass: 0 to 10 scale
Method in brief: as §1

giant foxtail [2] = assay: as above; type: in vivo, Setaria faberii; settings: 0 to 10 scale
Method in brief: as §1

morningglory = assay: as above; type: in vivo, Ipomoea hederacea; settings: 0 to 10 scale
Method in brief: as §1

rape = assay: as above; type: in vivo, Brassica napus; settings: 0 to 10 scale
Method in brief: as §1

barley = assay: Test C preemergence/postemergence greenhouse plant response rating 0 to 100; type: in vivo, Hordeum vulgare; settings: POSTEMERGENCE; for Plant response rating Barley Igri: 0 to 100 scale
Source text: (§2) The compounds evaluated in this test were formulated in a non-phytoxic solvent and applied to the soil surface before plant seedlings emerged (preemergence application), to water that covered the soil surface (flood application), and to plants that were in the one-to-four leaf stage (postemergence application). A sandy loam soil was used for the preemergence and postemergence tests, while a silt loam soil was used in the flood test. Water depth was approximately 2.5 cm for the flood test and was maintained at this level for the duration of the test. Plant species in the preemergence and postemergence tests consisted of barley (Hordeum vulgare), bedstraw (Galium aparine), blackgrass (Alopecurus myosuroides), chickweed (Stellaria media), corn (Zea mays), cotton (Gossypium hirsutum), crabgrass (Digitaria sanguinalis), downy brome (Bromus tectorum), giant foxtail (Setaria faberii), lambsquarters (Chenopodium album), morningglory (Ipomoea hederacea), pigweed ([…]), rape (Brassica napus), ryegrass (Lolium multiflorum), sorghum (Sorghum bicolor), soybean (Glycine max), speedwell (Veronica persica), sugar beet (Beta vulgaris), velvetleaf (Abutilon theophrasti), wheat (Triticum aestivum), wild buckwheat (Polygonum convolvulus), and wild oat (Avena fatua). All plant species were planted one day before application of the compound for the preemergence portion-of this test. Plantings of these species were adjusted to produce plants of appropriate size for the post-emergence portion of the test. […] All plant species were grown using normal greenhouse practices. Visual evaluations of injury expressed on treated plants, when compared to untreated controls, were recorded approximately fourteen to twenty one days after application of the test compound. […] A dash (-) response means no test result.

chickweed = assay: as above; type: in vivo, Stellaria media; settings: POSTEMERGENCE; for Plant response rating, Chickweed: 0 to 100 scale
Source text: as §2

cotton [3] = assay: as above; type: in vivo, Gossypium hirsutum; settings: POSTEMERGENCE; for Plant response rating, Cotton: 0 to 100 scale
Source text: as §2

giant foxtail [4] = assay: as above; type: in vivo, Setaria faberii; settings: POSTEMERGENCE; for Plant response rating, Giant foxtail: 0 to 100 scale
Source text: as §2

lambsquarters = assay: as above; type: in vivo, Chenopodium album; settings: POSTEMERGENCE; for Plant response rating Lambsquarters: 0 to 100 scale
Source text: as §2

pigweed = assay: as above; type: in vivo, Amaranthusretroflexus; settings: POSTEMERGENCE; for Plant response rating Pigweed: 0 to 100 scale
Source text: as §2

soybean = assay: as above; type: in vivo, Glycine max; settings: POSTEMERGENCE; for Plant response rating, Soybean: 0 to 100 scale
Source text: as §2

velvetleaf = assay: as above; type: in vivo, Abutilon theophrasti; settings: POSTEMERGENCE; for Plant response rating, Velvetleaf: 0 to 100 scale
Source text: as §2

umbrella sedge = assay: Test C flood test plant response rating 0 to 100; type: in vivo, Cyperus difformis; settings: for Plant response rating Umbrella sedge: flood test species listed under POSTEMERGENCE, 0 to 100 scale
Source text: as §2

duck salad = assay: Test C flood test plant response rating 0 to 100; type: in vivo, Heteranthera limosa; settings: for Plant response rating Duck salad: flood test species listed under POSTEMERGENCE, 0 to 100 scale
Source text: as §2

[5] = POSTEMERGENCE section, flood test, Rate 4 g/ha
[6] = Rate 16 g/ha, under POSTEMERGENCE head (flood test species)

In the case of `COc1cc(-c2nn3c(c2Cl)CCCC3)c(F)cc1Cl` [Compound 29], the “Plant response rating (0 to 10 scale), Bedstraw” value (bedstraw; POSTEMERGENCE, Rate 50 g/ha) is reported as 7, the “Plant response rating, Bedstraw” value (bedstraw; POSTEMERGENCE, Rate 200 g/ha) is reported as 10 and the “Plant response rating, Bedstraw” value (bedstraw; PREEMERGENCE, Rate 50 g/ha) is reported as 7. The “Plant response rating, Bedstraw” value (bedstraw; Rate 200 g/ha, PREEMERGENCE) was 9, the “Plant response rating (0 to 10 scale), Cheatgrass” value (cheatgrass; POSTEMERGENCE, Rate 50 g/ha) was 4 and the “Plant response rating, Cheatgrass” value (cheatgrass; POSTEMERGENCE, Rate 200 g/ha) was 8. The “Plant response rating, Cheatgrass” value (cheatgrass; PREEMERGENCE, Rate 50 g/ha) was 5, the “Plant response rating, Cheatgrass” value (cheatgrass; Rate 200 g/ha, PREEMERGENCE) was 8 and the “Plant response rating (0 to 10 scale), Cocklebur” value (cocklebur; POSTEMERGENCE, Rate 50 g/ha) was 6. The “Plant response rating, Cocklebur” value (cocklebur; POSTEMERGENCE, Rate 200 g/ha) was 10, the “Plant response rating, Cocklebur” value (cocklebur; PREEMERGENCE, Rate 50 g/ha) was 2 and the “Plant response rating, Cocklebur” value (cocklebur; Rate 200 g/ha, PREEMERGENCE) was 4. The “Plant response rating (0 to 10 scale), Cotton” value (cotton [1]; POSTEMERGENCE, Rate 50 g/ha) was 10, the “Plant response rating, Cotton” value (cotton [1]; POSTEMERGENCE, Rate 200 g/ha) was 10 and the “Plant response rating, Cotton” value (cotton [1]; PREEMERGENCE, Rate 50 g/ha) was 1. For the same molecule, the “Plant response rating, Cotton” value (cotton [1]; Rate 200 g/ha, PREEMERGENCE) was 7, the “Plant response rating (0 to 10 scale), Crabgrass” value (crabgrass; POSTEMERGENCE, Rate 50 g/ha) was 4 and the “Plant response rating, Crabgrass” value (crabgrass; POSTEMERGENCE, Rate 200 g/ha) was 5. The “Plant response rating, Crabgrass” value (crabgrass; PREEMERGENCE, Rate 50 g/ha) was 8, the “Plant response rating, Crabgrass” value (crabgrass; Rate 200 g/ha, PREEMERGENCE) was 9 and the “Plant response rating, Giant foxtail” value (giant foxtail [2]; POSTEMERGENCE, Rate 50 g/ha) was 3. The “Plant response rating, Giant foxtail” value (giant foxtail [2]; PREEMERGENCE, Rate 50 g/ha) was 8, the “Plant response rating, Giant foxtail” value (giant foxtail [2]; Rate 200 g/ha, POSTEMERGENCE) was 6 and the “Plant response rating, Giant foxtail” value (giant foxtail [2]; Rate 200 g/ha, PREEMERGENCE) was 9. The “Plant response rating, Morningglory” value (morningglory; POSTEMERGENCE, Rate 50 g/ha) was 8, the “Plant response rating, Morningglory” value (morningglory; PREEMERGENCE, Rate 50 g/ha) was 2 and the “Plant response rating, Morningglory” value (morningglory; Rate 200 g/ha, POSTEMERGENCE) was 10. For the same molecule, the “Plant response rating, Morningglory” value (morningglory; Rate 200 g/ha, PREEMERGENCE) was 5, the “Plant response rating, Rape” value (rape; POSTEMERGENCE, Rate 50 g/ha) was 8 and the “Plant response rating, Rape” value (rape; PREEMERGENCE, Rate 50 g/ha) was 8. The “Plant response rating, Rape” value (rape; Rate 200 g/ha, POSTEMERGENCE) was 10, the “Plant response rating, Rape” value (rape; Rate 200 g/ha, PREEMERGENCE) was 10 and the “Plant response rating Barley Igri” value (barley; 62 g/ha) was 60. The “Plant response rating Barley Igri” value (barley; 250 g/ha) was 90, the “Plant response rating (0 to 100), Barley Igri” value (barley; Rate 4 g/ha) was 20 and the “Plant response rating (0 to 100), Barley Igri” value (barley; Rate 16 g/ha) was 40. For the same molecule, the “Plant response rating, Chickweed” value (chickweed; 62 g/ha) was 60, the “Plant response rating, Chickweed” value (chickweed; 250 g/ha) was 95 and the “Plant response rating (0 to 100), Chickweed” value (chickweed; Rate 4 g/ha) was 10. The “Plant response rating (0 to 100), Chickweed” value (chickweed; Rate 16 g/ha) was 40, the “Plant response rating, Cotton” value (cotton [3]; 62 g/ha) was 100 and the “Plant response rating, Cotton” value (cotton [3]; 250 g/ha) was 100. The “Plant response rating (0 to 100), Cotton” value (cotton [3]; Rate 4 g/ha) was 100, the “Plant response rating (0 to 100), Cotton” value (cotton [3]; Rate 16 g/ha) was 100 and the “Plant response rating, Giant foxtail” value (giant foxtail [4]; 62 g/ha) was 70. For the same molecule, the “Plant response rating, Giant foxtail” value (giant foxtail [4]; 250 g/ha) was 100, the “Plant response rating (0 to 100), Giant foxtail” value (giant foxtail [4]; Rate 4 g/ha) was 0 and the “Plant response rating (0 to 100), Giant foxtail” value (giant foxtail [4]; Rate 16 g/ha) was 20. For the same molecule, the “Plant response rating Lambsquarters” value (lambsquarters; 62 g/ha) was 100, the “Plant response rating Lambsquarters” value (lambsquarters; 250 g/ha) was 100 and the “Plant response rating (0 to 100), Lambsquarters” value (lambsquarters; Rate 4 g/ha) was 30. The “Plant response rating (0 to 100), Lambsquarters” value (lambsquarters; Rate 16 g/ha) was 60, the “Plant response rating Pigweed” value (pigweed; 62 g/ha) was 100 and the “Plant response rating Pigweed” value (pigweed; 250 g/ha) was 100. The “Plant response rating (0 to 100), Pigweed” value (pigweed; Rate 4 g/ha) was 50, the “Plant response rating (0 to 100), Pigweed” value (pigweed; Rate 16 g/ha) was 100 and the “Plant response rating, Soybean” value (soybean; 62 g/ha) was 60. The “Plant response rating, Soybean” value (soybean; 250 g/ha) was 100, the “Plant response rating (0 to 100), Soybean” value (soybean; Rate 4 g/ha) was 10 and the “Plant response rating (0 to 100), Soybean” value (soybean; Rate 16 g/ha) was 50. For the same molecule, the “Plant response rating, Velvetleaf” value (velvetleaf; 62 g/ha) was 100, the “Plant response rating, Velvetleaf” value (velvetleaf; 250 g/ha) was 100 and the “Plant response rating (0 to 100), Velvetleaf” value (velvetleaf; Rate 4 g/ha) was 50. The “Plant response rating (0 to 100), Velvetleaf” value (velvetleaf; Rate 16 g/ha) was 100, the “Plant response rating (0 to 100), Umbrella sedge” value (umbrella sedge; [5]) was 20 and the “Plant response rating (0 to 100), Umbrella sedge” value (umbrella sedge; [6]) was 30. The “Plant response rating Umbrella sedge” value (umbrella sedge; 62 g/ha) was 90, the “Plant response rating Umbrella sedge” value (umbrella sedge; 250 g/ha) was 95 and the “Plant response rating (0 to 100), Duck salad” value (duck salad; [5]) was 20. The “Plant response rating (0 to 100), Duck salad” value (duck salad; [6]) was 85, the “Plant response rating Duck salad” value (duck salad; 62 g/ha) was 95 and the “Plant response rating Duck salad” value (duck salad; 250 g/ha) was 100.

Reference: patent US6358885B1, “Substituted phenylheterocyclic herbicides” (Mississippi State University, priority 1992, dated 2002)
